“Also recorded” adds a separate entry of the source.
System: human TM cells
Assay: Whole cell patch clamp ion conductances of human TM cells
Assay type: cell-based
Experimental: Further studies conducted with agents known to block Cl and K channels attenuate the swelling-activated regulatory volume decrease in TM cells and niflumic acid reduces both cell volume and intracellular [Cl] of TM cells. In these studies, human TM cells were cultured from donor eyes and used between passages three and eight. Routine whole cell patch clamp methods were used to assess conductances of TM cells in isotonic (290 mOsm) and hypotonic (230 mOsm) media, with or without NPPB, DIDS, TEA or niflumic acid. Conductances were determined from current/voltage plots, generated using a ramp protocol. […] The reversal potential observed in the presence of hypotonic medium was close to the calculated reversal potential for Cl. Switching to an external medium containing reduced Cl shifted the reversal potential toward that calculated for the low Cl medium. Treating the TM cells with the Cl channel blocker NPPB (100 μM) abolished the swelling-activated conductance in a manner reversed by subsequent washout of NPPB. […] Finally, treatment of the cells with the K channel blocker TEA (1 mM) also abolished the niflumic acid-activated TM cell conductance.
Human TM and SC cells grown to subconfluence are gently trypsinized on the day of the experiment and immediately exposed to trypsin-neutralizing solution and then allowed to settle onto standard square (22×22-mm) glass coverslips for 30 minutes before use. Routine patch clamp methods were used as described previously Barakat, A. I., et al., Circulation Research, 85: 820-828, 1999; Hamill, O. P. et al., Pflügers Archives, 391: 85-100, 1981; Mauro, T. et al., J of Invest. Dermatology, 105: 203-208, 1995; Pappone, P. A. et al., J. of Physiology, 306:377-410, 1980; Pappone, P. A. et al., J of Gen. Physiology, 106: 231-258, 1995; Pappone, P. A. et al., Amer. J. of Physiology: Cell Physiology, 264: C1014-C1019, 1993; Wilson, S. M. et al., J. of Gen. Physiology, 113: 125-138, 1999. Using the whole cell patch clamp mode, conductances were assessed for isotonic and hypotonic media. By assessing current/voltage (I/V) relationships and reversal potentials for the TM and SC cells while using specific concentrations of Cl in the pipette and bath media, the nature of the conductances observed can be determined.
Whole cell currents were measured at room temperature in a Warner recording/perfusion chamber (Warner Instrument Corp.) using standard whole-cell patch clamp techniques as described previously, Lucero, M. T. et al., J. of Gen. Physiology, 95:523-544, 1999. Thick-walled borosilicate capillaries (Sutter Instruments, Inc., Novato, Calif.) were used to manufacture pipettes with resistances of 3 to 5 MW. The voltage offset between the patch pipette and the bath solution were nulled immediately before patch formation. An agar bridge containing […] KCl was used to ground the bath solution. Voltages were recorded from a patch-clamp amplifier (AXOPATCH 200A, Axon Instruments). Data was collected on a Macintosh personal computer using Pulse+Pulsefit software (HEKA Elektronik). Whole-cell currents were recorded from single (sub confluent) cells with membrane capacitances nulled through the patch-clamp amplifier. The voltage ramp protocol included a voltage step from the holding potential to +60 mV for 40 ms followed by a ramp to −100 mV over a period of 400 ms followed by a return to the holding potential. During the protocol, voltage ramps were conducted once every 5 seconds for 10 minutes, yielding 120 traces. Conductances were computed by taking the derivative of a least-squares straight line fit to the I-V data plots using Igor Pro Software (Wavemetrics, Inc.). In cases in which the I-V plots are not linear over the entire voltage ramp (as in FIGS. 6AB), computation of the whole-cell conductance were restricted to a linear range, typically 0 to +60 mV. […]

`O=C(O)c1cccnc1Nc1cccc(C(F)(F)F)c1` [niflumic acid] was tested, and the “reversal potential of the niflumic acid-activated conductance” value (human TM cell, 100 μM niflumic acid, calculated reversal potentials Cl −22 mV, K −82 mV) was “very close to the Cl reversal potential; also recorded: quite close to the calculated reversal potential for Cl”, the “niflumic acid-activated conductance, dependence on bath ions” value (human TM cells, niflumic acid 100 μM, K-free or Cl-free medium) was “abolished in K-free medium but not in Cl-free medium” and the “ion conductance of TM cells” value (normal human TM cells, isotonic bath, niflumic acid 100 μM) was “activate an ion conductance; also recorded: rapid increase in conductance”.

From US20020177625A1, “Class of glaucoma drugs to enhance aqueous humor outflow and lower intra-ocular pressure” (The Regents of the University of California, a California …, priority 2001, published 2002)
